Assay results as given in patent publication US20040092402A1, “Pyrimidine derivatives and herbicides containing the same” (priority 2000, published 2004).
“And” between values parts separate entries of the source, which are not always exact repeats. Equal entries are not always repeated.

SMILES	melting point
COc1cc(-c2ncnc(C(F)(F)F)c2Cl)c(F)cc1Cl [A-1, 5-chloro-4-(4-chloro-2-fluoro-5-methoxyphenyl)-6-trifluoromethylpyrimidine]	112 to 113 °C and 109 to 111 °C
C#CCOc1cc(-c2ncnc(C(F)(F)F)c2Cl)c(F)cc1Cl [A-3, 5-Chloro-4-(4-chloro-2-fluoro-5-propargyloxyphenyl)-6-trifluoromethylpyrimidine]	112 to 113 °C
CCS(=O)(=O)Nc1cc(-c2ncnc(C(F)(F)F)c2Cl)c(F)cc1C#N [A-16, 5-chloro-4-[4-cyano-5-(N-ethanesulfonylamino)-2-fluorophenyl]-6-trifluoromethylpyrimidine]	188 to 189 °C and 191 to 194 °C
CCS(=O)(=O)N(C(C)=O)c1cc(-c2ncnc(C(F)(F)F)c2Cl)c(F)cc1C#N [A-23, 4-[5-(N-acetyl-N-ethanesulfonylamino)-4-cyano-2-fluorophenyl]-5-chloro-6-trifluoromethylpyrimidine]	144 to 146 °C
C=CCOc1cc(-c2ncnc(C(F)F)c2Cl)c(F)cc1Cl [D-2, 4-(5-Allyloxy-4-chloro-2-fluorophenyl)-5-chloro-6-difluoromethylpyrimidine]	69 to 71 °C and 67 to 71 °C
Fc1cc(Cl)c(OC(F)F)cc1-c1ncnc(C(F)F)c1Cl [D-7, 5-Chloro-4-[4-chloro-2-fluoro-5-(difluoromethoxy)phenyl]-6-difluoromethylpyrimidine]	56 to 57 °C
CCS(=O)(=O)Nc1cc(-c2ncnc(C(F)F)c2Cl)c(F)cc1Cl [D-14, 5-Chloro-4-(4-chloro-5-ethylsulfonylamino-2-fluoro-phenyl)-6-difluoromethylpyrimidine]	138 to 139 °C
CCS(=O)(=O)Nc1cc(-c2ncnc(C(F)F)c2Cl)c(Cl)cc1Cl [D-16, 5-Chloro-4-(2,4-dichloro-5-ethylsulfonylaminophenyl)-6-difluoromethylpyrimidine]	140 to 142 °C
CC(=O)Nc1cc(-c2ncnc(C(F)F)c2Cl)c(F)cc1C#N [D-21, 4-(5-Acetylamino-4-cyano-2-fluorophenyl)-5-chloro-6-difluoromethylpyrimidine]	160 to 162 °C
CCS(=O)(=O)Nc1cc(-c2ncnc(C(F)F)c2Cl)c(F)cc1C#N [D-26, 5-Chloro-4-[4-cyano-5-(ethylsulfonylamino)-2-fluoro-phenyl]-6-difluoromethylpyrimidine]	200 to 202 °C
CCS(=O)(=O)N(C(C)=O)c1cc(-c2ncnc(C(F)F)c2Cl)c(F)cc1C#N [D-27, 4-[5-(N-acetyl-N-ethylsulfonylamino)-4-cyano-2-fluorophenyl]-5-chloro-6-difluoromethylpyrimidine]	121 to 122 °C
COC(=O)c1cc(-c2ncnc(C(F)F)c2Cl)c(F)cc1Cl [D-41, 2-Chloro-4-fluoro-5-(5-chloro-6-difluoromethyl-pyrimidin-4-yl)benzoic acid methyl ester]	100 to 101 °C
C#CCSc1cc(-c2ncnc(C(F)F)c2Cl)c(F)cc1Cl [D-48, 5-Chloro-4-(4-chloro-2-fluoro-5-propargylthio-phenyl)-6-difluoromethylpyrimidine]	95 to 97 °C
CC(C)NS(=O)(=O)c1cc(-c2ncnc(C(F)F)c2Cl)c(F)cc1Cl [D-50, 2-Chloro-5-(5-chloro-6-difluoromethylpyrimidin-4-yl)-4-fluoro-N-isopropylbenzenesulfonamide]	172 to 175 °C
Cc1ncnc(-c2ccc(Cl)cc2F)c1Cl [E-1, 4-(4-Chloro-2-fluorophenyl)-5-chloro-6-methyl-pyrimidine]	77 to 79 °C
CCS(=O)(=O)Nc1cc(-c2ncnc(C)c2Cl)c(F)cc1C#N [E-10, 5-Chloro-4-[4-cyano-5-(ethylsulfonylamino)-2-fluoro-phenyl]-6-methylpyrimidine]	182 to 184 °C
CCS(=O)(=O)Nc1cc(-c2ncnc(C(C)C)c2Cl)c(F)cc1C#N [E-13, 5-Chloro-4-[4-cyano-5-(ethylsulfonylamino)-2-fluoro-phenyl]-6-isopropylpyrimidine]	160 to 162 °C

SMILES	melting point
C#CCOc1cc(-c2ncnc(C(Cl)Cl)c2Cl)c(F)cc1Cl [E-19, 5-Chloro-4-(4-chloro-2-fluoro-5-propargyloxyphenyl)-6-dichloromethylpyrimidine]	86 to 88 °C
COc1cc(-c2ncnc(OC)c2Cl)c(F)cc1Cl [H-1, 5-Chloro-4-(4-chloro-2-fluoro-5-methoxyphenyl)-6-methoxypyrimidine]	142 to 143 °C
CCS(=O)(=O)Nc1cc(-c2ncnc(OC)c2Cl)c(F)cc1C#N [H-7, 5-Chloro-4-[4-cyano-5-(ethylsulfonylamino)-2-fluorophenyl]-6-methoxypyrimidine]	149 to 150 °C
CCS(=O)(=O)Nc1cc(-c2ncnc(Cl)c2Cl)c(F)cc1C#N [H-16, 4,5-Dichloro-6-[4-cyano-5-(ethylsulfonylamino)-2-fluorophenyl]pyrimidine]	149 to 150 °C
CCS(=O)(=O)Nc1cc(C2(NC)NC=NC=C2Cl)c(F)cc1C#N (stereo not shown) [H-20, 5-Chloro-6-[4-cyano-5-(ethylsulfonylamino)-2-fluoro-phenyl]-6-methylaminopyrimidine]	211 to 212 °C
CCS(=O)(=O)Nc1cc(-c2ncnc(NOC)c2Cl)c(F)cc1C#N [H-27, 5-Chloro-4-[4-cyano-5-(ethylsulfonylamino)-2-fluoro-phenyl]-6-methoxyaminopyrimidine]	188 to 189 °C
COC1(F)C=C(Cl)C=CC1c1ncnc(C)c1C (stereo not shown) [J-1, 4-(4-Chloro-2-fluoro-2-methoxyphenyl)-5,6-dimethyl-pyrimidine]	156 to 157 °C
C#CCOc1cc(-c2ncnc(C)c2C)c(F)cc1Cl [J-3, 4-(4-Chloro-2-fluoro-5-propargyloxyphenyl)-5,6-dimethyl pyrimidine]	131 to 133 °C
COc1cc(-c2ncnc(C(F)(F)F)c2C)c(F)cc1Cl [J-5, 4-(4-Chloro-2-fluoro-5-methoxyphenyl)-5-methyl-6-trifluoromethylpyrimidine]	144 to 146 °C
C#CCOc1cc(-c2ncnc(C(F)(F)F)c2C)c(F)cc1Cl [J-7, 4-(4-Chloro-2-fluoro-5-propargyloxyphenyl)-5-methyl-6-trifluoromethylpyrimidine]	90 to 92 °C
CCS(=O)(=O)N(C(C)=O)c1cc(-c2ncnc(C(F)F)c2Cl)c(F)cc1C#N [J-14, 4-[5-(N-acetyl-N-ethylsulfonylamino)-4-cyano-2-fluorophenyl]-5-chloro-6-difluoromethylpyrimidine]	123 to 124 °C
COc1ncnc(-c2cc(NS(C)(=O)=O)c(C#N)cc2F)c1C [J-16, 4-(4-cyano-5-methylsulfonylamino-2-fluorophenyl)-6-methoxy-5-methylpyrimidine]	218 to 220 °C
COc1cc(-c2ncnc(OC)c2C#N)c(F)cc1Cl [K-1, 4-(4-Chloro-2-fluoro-5-methoxyphenyl)-5-cyano-6-methoxypyrimidine]	183 to 185 °C
CCS(=O)(=O)Nc1cc(-c2ncnc(OC)c2C#N)c(F)cc1C#N [K-3, 4-(4-Cyano-5-ethylsulfonylamino-2-fluorophenyl)-5-cyano-6-methoxypyrimidine]	187 to 189 °C
COC(=O)c1cc(-c2ncnc(C)c2C#N)c(F)cc1Cl [K-19, Methyl 2-chloro-5-(5-cyano-6-methylpyrimidin-4-yl)-4-fluorobenzoate]	142 to 144 °C
COc1ncnc(-c2cc(NS(C)(=O)=O)c(Cl)cc2Cl)c1C#N [K-20, 4-(2,4-Dichloro-5-methylsulfonylaminophenyl)-5-cyano-6-methoxypyrimidine]	160 to 162 °C
COc1cc(-c2ncnc(OC)c2C=O)c(F)cc1Cl [L-1, 4-(4-Chloro-2-fluoro-5-methoxyphenyl)-5-formyl-6-methoxypyrimidine]	161 to 163 °C
